Assay type in all cases: in vivo
In experiment [1] the test system is Pinot noir. The experiment in a line: Frost-resistance of vine plants after foliar spraying, Pinot noir. To be noted: for Gain: cold stress -3 to -5° C. 12 hours after application. On the procedure:
(§1) Plants originating from different vine varieties: the Chardonnay, Pinot noir and Cabernet-Sauvignon varieties are used. Each sample, composed of 5 to 21 plants, is treated by foliar spraying at different vegetative stages on the BBCH scale with a mixture containing the xyloglucan elicitor, HEPTAMALOXYLOGLUCAN or XFGol in solution at variable doses; the spraying of 2.5 ml of solution per plant is carried out using a sprayer (deviation of +/−1%).
(§2) 12 hours after the application of the elicitor, the plants were exposed to cold stress at −3 to −5° C. After exposure to the cold, the plants are placed in a climatic chamber at 20° C. with a 12-hour day/night alternation. The appearance of the leaves is observed 24 hours and 72 hours after removal from the cold. The effects of the cold are evaluated by observing the foliar necroses induced by frost and the plants are kept for several months in order to monitor their subsequent development.
(§3) The results are expressed by the protection index IP: IP (%)=100−P; P, being the proportion of necrotized leaves.

The subject of experiment [2] is kiwi plants. Nature of the experiment: Frost-resistance of kiwi plants after foliar spraying (death of buds). To be noted: for Gain % / IP (protection index of kiwi buds; IP=100-P, P=proportion of dead buds): elicitor 500 nM. The protocol:
The elicitor which is used is HEPTAMALOXYLOGLUCAN (or XFGol).
Before the cold stress, plants are treated or not by foliar spraying with a spray mixture containing HEPTAMALOXYLOGLUCAN.
After application of the spraying mixture, the plants were exposed to cold stress. In order to reproduce artificial conditions of cold stress, plants were placed in a climatic chamber.
The effects of cold are evaluated by observing the death of buds due to frost.
The results are expressed by the protection index IP: IP (%)=100-P; P, being the proportion of dead buds.
The results are also expressed in gain:
Increase of protection of kiwi plants elicited by the product PEL101GV (500 nM). IP corresponds to the protection index of kiwi buds, 28 days after the cold stress at −2,8° C. or −4° C. (IP=100−P; P=proportion of dead buds)

Experiment [3] has as its system Chardonnay. Nature of the experiment: Frost-resistance of vine plants after foliar spraying, Chardonnay. To be noted: for Gain: cold stress -3 to -5° C. 12 hours after application. On the procedure:
as §1, §2, §3

The subject of experiment [4] is Cabernet-Sauvignon. The experiment in a line: Frost-resistance of vine plants after foliar spraying, Cabernet-Sauvignon. To be noted: for Gain: Cabernet Sauvignon, cold stress -3 to -5° C. 12 hours after application. The protocol: as §1, §2, §3
The mark [5] stands for this setting: spray mixture containing 5 nM, compared within a range of 0.5 nM to 5000 nM.
Setting [6] is: 28 days after the cold stress at -2.8° C.
Setting [7] is: 28 days after the cold stress at -4° C.

For `CC1OC(OC2C(OC3C(OCC4OC(OC(C(O)CO)C(O)C(O)CO)C(O)C(O)C4OC4OC(COC5OCC(O)C(O)C5O)C(O)C(O)C4O)OCC(O)C3O)OC(CO)C(O)C2O)C(O)C(O)C1O` (stereo not drawn) [HEPTAMALOXYLOGLUCAN], the Gain was found to be 0% in experiment [1] (elicitor 0.5 nM foliar spray); 34% in experiment [1] (elicitor 5 nM foliar spray); 0% in experiment [1] (elicitor 50 nM foliar spray); 27% in experiment [1] (elicitor 500 nM foliar spray); 25% in experiment [1] (elicitor 5000 nM foliar spray); 28% in experiment [3] (elicitor 0.5 nM foliar spray). For the same compound, the Gain in experiment [3] (elicitor 5 nM foliar spray) came out at 42%; in experiment [3] (elicitor 50 nM foliar spray), 9%; in experiment [3] (elicitor 500 nM foliar spray), 0%; in experiment [3] (elicitor 5000 nM foliar spray) it was 28%; in experiment [4] (elicitor 5 nM foliar spray) it was 46%; in experiment [4] (elicitor 50 nM foliar spray), 35%. Also, the Gain in experiment [4] (elicitor 500 nM foliar spray) turned out to be 76%. In addition, the protection against frost entry was “more efficient than the other doses” in experiment [1] (setting [5]); “more efficient than the other doses” in experiment [3] (setting [5]); “more efficient than the other doses” in experiment [4] (Cabernet sauvignon, spray mixture containing 500 nM, compared with the other doses). Besides, the Gain % in experiment [2] (setting [6]) was 27%; in experiment [2] (setting [7]), 87%. For the same compound, the figures for the “IP (protection index of kiwi buds; IP=100-P, P=proportion of dead buds)” value in experiment [2] (setting [6]) and in experiment [2] (setting [7]) were 81% and 56%, respectively. Besides, the “protection of the kiwi buds against frost” value in experiment [2] (treated versus control) was “better protection”.

Values taken from patent publication US20100304975A1, “PROCESS FOR […] RESISTANCE TO AN ABIOTIC STRESS” (ELICITYL, priority 2007, published 2010).
